Source: ChEMBL document CHEMBL5331075, “New antileishmanial quinoline linked isatin derivatives targeting DHFR-TS and PTR1: Design, synthesis, and molecular modeling studies” (Eur J Med Chem, 2023)

Test system: not listed separately
Assay: Selectivity index, ratio of CC50 for cytotoxicity against African green monkey Vero cells to IC50 for antileishmanial activity against Leishmania major amastigotes assessed as parasite growth inhibition
Assay type: toxicity, cell-based
Conditions: read-out: Ratio CC50/IC50
In the case of `O=C1Nc2ccc(Br)cc2/C1=N/Nc1ccnc2cc(Cl)ccc12`, the selectivity ratio is reported as 258.
Molecule `O=C1Nc2ccc(OC(F)(F)F)cc2/C1=N/Nc1ccnc2cc(Cl)ccc12` has a selectivity ratio of 326.
In the case of `O=C1Nc2ccc(F)cc2/C1=N/Nc1ccnc2cc(Cl)ccc12`, the selectivity ratio is reported as 255.

Test system: Leishmania major
Assay: Antileishmanial activity against Leishmania major promastigotes assessed as parasite growth inhibition at 100 uM incubated for 48 hrs in presence of folinic acid relative to control
Assay type: functional
Parameters: scale not given: the % may be the effect or the level left
Conditions: not given
For `O=C1Nc2ccc(Br)cc2/C1=N/Nc1ccnc2cc(Cl)ccc12`, the Activity was 91%.
`O=C1Nc2ccc(OC(F)(F)F)cc2/C1=N/Nc1ccnc2cc(Cl)ccc12` gave an Activity of 98%.
For `O=C1Nc2ccc(F)cc2/C1=N/Nc1ccnc2cc(Cl)ccc12`, the Activity was 94%.

Test system: Leishmania major
Assay: Antileishmanial activity against Leishmania major promastigotes assessed as parasite growth inhibition at 20 uM incubated for 48 hrs in presence of folinic acid relative to control
Assay type: functional
Parameters: scale not given: the % may be the effect or the level left
Conditions: not given
`O=C1Nc2ccc(Br)cc2/C1=N/Nc1ccnc2cc(Cl)ccc12` showed an Activity of 76%.
Molecule `O=C1Nc2ccc(OC(F)(F)F)cc2/C1=N/Nc1ccnc2cc(Cl)ccc12` has an Activity of 96%.
`O=C1Nc2ccc(F)cc2/C1=N/Nc1ccnc2cc(Cl)ccc12` gave an Activity of 84%.

Test system: Leishmania major
Assay: Antileishmanial activity against Leishmania major promastigotes assessed as parasite growth inhibition at 100 uM incubated for 48 hrs in presence of folic acid relative to control
Assay type: functional
Parameters: scale not given: the % may be the effect or the level left
Conditions: not given
Work on `COc1cc(Cc2cnc(N)nc2N)cc(OC)c1OC` [TRIMETHOPRIM] yielded an Activity of 99%.
`O=C1Nc2ccc(Br)cc2/C1=N/Nc1ccnc2cc(Cl)ccc12` gave an Activity of 87%.
Molecule `O=C1Nc2ccc(OC(F)(F)F)cc2/C1=N/Nc1ccnc2cc(Cl)ccc12` has an Activity of 93%.
For `O=C1Nc2ccc(F)cc2/C1=N/Nc1ccnc2cc(Cl)ccc12`, the Activity was 90%.

Test system: Leishmania major
Assay: Antileishmanial activity against Leishmania major promastigotes assessed as parasite growth inhibition incubated for 48 hrs
Assay type: functional
Parameters: scale not given: the % may be the effect or the level left
Conditions: not given
Molecule `COc1cc(Cc2cnc(N)nc2N)cc(OC)c1OC` [TRIMETHOPRIM] has an Activity of 71%.
Work on `O=C1Nc2ccc(Br)cc2/C1=N/Nc1ccnc2cc(Cl)ccc12` yielded an Activity of 21%.
Molecule `O=C1Nc2ccc(OC(F)(F)F)cc2/C1=N/Nc1ccnc2cc(Cl)ccc12` has an Activity of 28%.
With `O=C1Nc2ccc(F)cc2/C1=N/Nc1ccnc2cc(Cl)ccc12` the Activity was 25%.

Test system: Leishmania major
Assay: Antileishmanial activity against Leishmania major amastigotes assessed as parasite growth inhibition incubated for 72 hrs by resazurin dye based assay
Assay type: functional, organism-based
Conditions: not given
Molecule `O=C1Nc2ccccc2/C1=N/Nc1ccnc2cc(Cl)ccc12` has an IC50 of 2.45 µM.
`O=C1/C(=N/Nc2ccnc3cc(Cl)ccc23)c2cc(Br)ccc2N1Cc1ccccc1` gave an IC50 of 8.29 µM.
In the case of `CN1C(=O)/C(=N/Nc2ccnc3cc(Cl)ccc23)c2cc(Cl)ccc21`, the IC50 is reported as 3.25 µM.
In the case of `CN1C(=O)/C(=N\Nc2ccnc3cc(Cl)ccc23)c2ccccc21`, the IC50 is reported as 3.49 µM.
With `O=C1/C(=N/Nc2ccnc3cc(Cl)ccc23)c2ccccc2N1Cc1ccccc1` the IC50 was 6.88 µM.
With `CCCN1C(=O)/C(=N/Nc2ccnc3cc(Cl)ccc23)c2ccccc21` the IC50 was 5.49 µM.
Molecule `O=C1Nc2c(F)cccc2/C1=N/Nc1ccnc2cc(Cl)ccc12` has an IC50 of 1.1 µM.
For `CC(C)CN1C(=O)/C(=N/Nc2ccnc3cc(Cl)ccc23)c2cc(Cl)ccc21`, the IC50 was 6.03 µM.
`CC(C)CN1C(=O)/C(=N/Nc2ccnc3cc(Cl)ccc23)c2cc(Br)ccc21` showed an IC50 of 6.86 µM.
`CN1C(=O)/C(=N/Nc2ccnc3cc(Cl)ccc23)c2cc(Br)ccc21` gave an IC50 of 3.46 µM.
In the case of `CCCN1C(=O)/C(=N/Nc2ccnc3cc(Cl)ccc23)c2cc(Cl)ccc21`, the IC50 is reported as 4.99 µM.
Work on `CC(C)CN1C(=O)/C(=N\Nc2ccnc3cc(Cl)ccc23)c2ccccc21` yielded an IC50 of 3.99 µM.
Work on `O=C1Nc2ccc(Br)cc2/C1=N/Nc1ccnc2cc(Cl)ccc12` yielded an IC50 of 0.604 µM.
In the case of `CCN1C(=O)/C(=N\Nc2ccnc3cc(Cl)ccc23)c2ccccc21`, the IC50 is reported as 5.85 µM.
In the case of `O=C1Nc2ccc(OC(F)(F)F)cc2/C1=N/Nc1ccnc2cc(Cl)ccc12`, the IC50 is reported as 0.944 µM.
Work on `O=C1/C(=N/Nc2ccnc3cc(Cl)ccc23)c2cc(Cl)ccc2N1Cc1ccccc1` yielded an IC50 of 5.3 µM.
In the case of `CCN1C(=O)/C(=N/Nc2ccnc3cc(Cl)ccc23)c2cc(Br)ccc21`, the IC50 is reported as 5.12 µM.
`CCN1C(=O)/C(=N/Nc2ccnc3cc(Cl)ccc23)c2cc(Cl)ccc21` gave an IC50 of 4.34 µM.
With `O=C1Nc2ccc(F)cc2/C1=N/Nc1ccnc2cc(Cl)ccc12` the IC50 was 0.721 µM.
Molecule `O=C1Nc2ccc(Cl)cc2/C1=N/Nc1ccnc2cc(Cl)ccc12` has an IC50 of 1.26 µM.

Test system: not listed separately
Assay: Cytotoxicity against African green monkey Vero cells assessed as reduction in cell viability incubated for 72 hrs by crystal violet staining based analysis
Assay type: toxicity
Conditions: chlorocebus sabaeus
For `O=C1Nc2ccc(Br)cc2/C1=N/Nc1ccnc2cc(Cl)ccc12`, the CC50 at 72 h was 156 µM.
`O=C1Nc2ccc(OC(F)(F)F)cc2/C1=N/Nc1ccnc2cc(Cl)ccc12` showed a CC50 at 72 h of 308 µM.
With `O=C1Nc2ccc(F)cc2/C1=N/Nc1ccnc2cc(Cl)ccc12` the CC50 at 72 h was 184 µM.

Test system: Leishmania major
Assay: Antileishmanial activity against Leishmania major promastigotes assessed as parasite growth inhibition incubated for 24 hrs by Alamar blue staining based assay
Assay type: functional, organism-based
Conditions: not given
Molecule `O=C1Nc2ccccc2/C1=N/Nc1ccnc2cc(Cl)ccc12` has an IC50 of 0.986 µM.
`O=C1/C(=N/Nc2ccnc3cc(Cl)ccc23)c2cc(Br)ccc2N1Cc1ccccc1` gave an IC50 of 5.95 µM.
`CN1C(=O)/C(=N/Nc2ccnc3cc(Cl)ccc23)c2cc(Cl)ccc21` showed an IC50 of 1.87 µM.
Work on `CN1C(=O)/C(=N\Nc2ccnc3cc(Cl)ccc23)c2ccccc21` yielded an IC50 of 1.88 µM.
`O=C1/C(=N/Nc2ccnc3cc(Cl)ccc23)c2ccccc2N1Cc1ccccc1` gave an IC50 of 3.97 µM.
`CCCN1C(=O)/C(=N/Nc2ccnc3cc(Cl)ccc23)c2ccccc21` gave an IC50 of 3.16 µM.
`O=C1Nc2c(F)cccc2/C1=N/Nc1ccnc2cc(Cl)ccc12` gave an IC50 of 1.1 µM.
For `CC(C)CN1C(=O)/C(=N/Nc2ccnc3cc(Cl)ccc23)c2cc(Cl)ccc21`, the IC50 was 3.5 µM.
With `CC(C)CN1C(=O)/C(=N/Nc2ccnc3cc(Cl)ccc23)c2cc(Br)ccc21` the IC50 was 4.11 µM.
For `CN1C(=O)/C(=N/Nc2ccnc3cc(Cl)ccc23)c2cc(Br)ccc21`, the IC50 was 1.74 µM.
Work on `CCCN1C(=O)/C(=N/Nc2ccnc3cc(Cl)ccc23)c2cc(Cl)ccc21` yielded an IC50 of 2.99 µM.
`CC(C)CN1C(=O)/C(=N\Nc2ccnc3cc(Cl)ccc23)c2ccccc21` showed an IC50 of 2.67 µM.
Work on `O=C1Nc2ccc(Br)cc2/C1=N/Nc1ccnc2cc(Cl)ccc12` yielded an IC50 of 0.508 µM.
Work on `CCN1C(=O)/C(=N\Nc2ccnc3cc(Cl)ccc23)c2ccccc21` yielded an IC50 of 3.45 µM.
Molecule `O=C1Nc2ccc(OC(F)(F)F)cc2/C1=N/Nc1ccnc2cc(Cl)ccc12` has an IC50 of 0.668 µM.
Molecule `O=C1/C(=N/Nc2ccnc3cc(Cl)ccc23)c2cc(Cl)ccc2N1Cc1ccccc1` has an IC50 of 4 µM.
`CCN1C(=O)/C(=N/Nc2ccnc3cc(Cl)ccc23)c2cc(Br)ccc21` showed an IC50 of 3.21 µM.
For `CCN1C(=O)/C(=N/Nc2ccnc3cc(Cl)ccc23)c2cc(Cl)ccc21`, the IC50 was 2.96 µM.
`O=C1Nc2ccc(F)cc2/C1=N/Nc1ccnc2cc(Cl)ccc12` gave an IC50 of 0.557 µM.
In the case of `O=C1Nc2ccc(Cl)cc2/C1=N/Nc1ccnc2cc(Cl)ccc12`, the IC50 is reported as 0.67 µM.

Test system: Leishmania major
Assay: Antileishmanial activity against Leishmania major promastigotes assessed as parasite growth inhibition at 20 uM incubated for 48 hrs in presence of folic acid relative to control
Assay type: functional
Parameters: scale not given: the % may be the effect or the level left
Conditions: not given
`O=C1Nc2ccc(Br)cc2/C1=N/Nc1ccnc2cc(Cl)ccc12` showed an Activity of 74%.
Molecule `O=C1Nc2ccc(OC(F)(F)F)cc2/C1=N/Nc1ccnc2cc(Cl)ccc12` has an Activity of 86%.
For `O=C1Nc2ccc(F)cc2/C1=N/Nc1ccnc2cc(Cl)ccc12`, the Activity was 80%.
